Measured values taken from ChEMBL document CHEMBL1201862, “PubChem BioAssay data set” (2004).
Calls of active or inactive are those of the source.

Legend:
[1] = biological target: T1, Short transient receptor potential channel 4 (Mus musculus, UniProt Q9QUQ5); test: calcium entry via TRPC4 opening agents – cell-based, HEK293 TRPC4/mu-opioid, Fluo-4 calcium, dose response (AID 434937); format: functional
T1 sequence (Q9QUQ5 whole entry): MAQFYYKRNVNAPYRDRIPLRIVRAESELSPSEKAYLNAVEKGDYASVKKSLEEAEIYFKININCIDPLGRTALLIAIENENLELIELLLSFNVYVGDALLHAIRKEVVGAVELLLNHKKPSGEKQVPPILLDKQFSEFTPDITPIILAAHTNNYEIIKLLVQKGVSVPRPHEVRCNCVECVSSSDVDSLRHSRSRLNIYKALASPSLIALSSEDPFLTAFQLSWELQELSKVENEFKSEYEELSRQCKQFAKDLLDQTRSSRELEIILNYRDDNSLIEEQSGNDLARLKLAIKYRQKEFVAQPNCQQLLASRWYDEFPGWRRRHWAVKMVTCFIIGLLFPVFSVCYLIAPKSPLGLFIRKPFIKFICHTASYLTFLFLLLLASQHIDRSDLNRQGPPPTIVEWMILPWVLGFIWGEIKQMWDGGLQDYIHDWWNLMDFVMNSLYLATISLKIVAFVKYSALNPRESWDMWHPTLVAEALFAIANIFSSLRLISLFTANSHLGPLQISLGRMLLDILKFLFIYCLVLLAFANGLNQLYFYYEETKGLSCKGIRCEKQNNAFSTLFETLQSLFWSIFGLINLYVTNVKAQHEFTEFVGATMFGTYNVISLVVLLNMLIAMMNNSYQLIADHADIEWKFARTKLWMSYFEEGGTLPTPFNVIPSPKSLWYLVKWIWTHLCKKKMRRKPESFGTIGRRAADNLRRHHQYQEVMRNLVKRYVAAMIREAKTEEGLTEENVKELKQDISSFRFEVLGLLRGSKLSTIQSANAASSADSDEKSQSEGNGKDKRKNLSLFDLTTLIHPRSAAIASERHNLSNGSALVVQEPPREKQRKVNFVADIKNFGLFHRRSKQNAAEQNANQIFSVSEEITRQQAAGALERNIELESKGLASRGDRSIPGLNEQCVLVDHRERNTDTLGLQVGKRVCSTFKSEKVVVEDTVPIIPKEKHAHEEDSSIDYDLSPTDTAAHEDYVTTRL

Cytochrome P450 2D6 = Cytochrome P450 2D6 (Homo sapiens, UniProt P10635);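 further: CYP2D6 member of a cytochrome P450 panel assay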
Cytochrome P450 1A2 = biological target: T2, Cytochrome P450 1A2 (Homo sapiens, UniProt P05177);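 further: PubChem cytochrome P450 panel assay, CYP1A2 panel member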
T2 sequence (P05177 whole entry): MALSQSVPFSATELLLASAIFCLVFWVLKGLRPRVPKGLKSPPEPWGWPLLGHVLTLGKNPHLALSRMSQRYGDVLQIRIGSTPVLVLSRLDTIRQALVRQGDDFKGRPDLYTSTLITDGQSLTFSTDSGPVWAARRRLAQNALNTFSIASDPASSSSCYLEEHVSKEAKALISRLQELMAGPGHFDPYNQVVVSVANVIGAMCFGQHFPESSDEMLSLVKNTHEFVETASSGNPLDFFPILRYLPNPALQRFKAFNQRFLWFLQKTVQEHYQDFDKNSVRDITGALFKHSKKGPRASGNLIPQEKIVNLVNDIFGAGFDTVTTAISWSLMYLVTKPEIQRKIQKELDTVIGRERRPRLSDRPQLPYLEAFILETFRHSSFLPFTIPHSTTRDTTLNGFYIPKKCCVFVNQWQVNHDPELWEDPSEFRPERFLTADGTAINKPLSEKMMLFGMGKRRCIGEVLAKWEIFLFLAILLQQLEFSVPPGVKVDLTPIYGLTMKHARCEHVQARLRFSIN

Cytochrome P450 2C19 = Cytochrome P450 2C19 (Homo sapiens, UniProt P33261); test: Cytochrome panel assay with activity outcomes. Panel member name: p450-cyp2c19 Compounds with AC50 equal or less than 10 uM are considered active; format: functional
[2] = biological target: Eukaryotic translation initiation factor 4E (Mus musculus, UniProt P63073); test: blockers of eIF4G binding by eIF4E – biochemical, TR-FRET, dose response (AID 855); format: functional;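 further: potency for disrupting eIF4E binding to eIF4GI seen as loss of FRET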
Kallikrein-7 = Kallikrein-7 (Homo sapiens, UniProt P49862); test: Fluorescence Intensity-based biochemical primary high throughput dose response assay to identify activators of kallikrein-7 (K7) zymogen.
Cytochrome P450 3A4 [3] = biological target: T3, Cytochrome P450 3A4 (Homo sapiens, UniProt P08684); settings: Potency
BJ [4] = test: BJ-TERT fibroblast viability loss – cell-based, RAS-independent, luminescence, dose response (AID 1933); format: functional; settings: Homo sapiens
[5] = Luminescence Cell-Based Dose Response HTS to Identify Inhibitors of 5'UTR Stem-Loop Driven Prion Protein mRNA Translation in H4 Neuroglioblastoma Cells. [Related pubchem assays: 1827 (Project Summary), 1813 (Primary HTS)]; format: functional
BJ [6] = test: BJ-TERT-LT-ST fibroblast viability loss – cell-based, RAS-independent, luminescence, dose response (AID 1935); format: functional; settings: Homo sapiens;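 further: BJ fibroblasts immortalized with TERT plus LT and ST oncogenes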
[7] = Luminescence Cell-Based Dose Retest to Confirm Inhibitors of Cancer Stem Cells. [Related pubchem assays (depositor defined):AID2717, AID2721]; format: functional; settings: Homo sapiens
BJ [8] = test: cells; format: functional, cell-based; settings: Homo sapiens
[9] = luciferase reporter signal suppression in cells – H4 neuroglioma cells, luminescence, dose response (AID 1990); format: functional, cell-based
BJ [10] = test: growth inhibition of engineered Ras-driven BJ cells – cell-based, alamar blue fluorescence, cherrypicked samples, dose response (AID 2631); format: functional; settings: Homo sapiens;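 further: confirmatory dose-response assay in RAS-dependent BJ fibroblasts engineered with TERT, LT and ST, with cytotoxicity read by fluorescence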
[11] = alpha-synuclein stem-loop luciferase translation blockers – H4 neuroglioma cells, luminescence, confirmation (AID 1988); format: functional, cell-based
[12] = DRD fibroblast viability loss – cell-based, non-viral oncogenic, luminescence, dose response (AID 1934); format: functional; settings: Homo sapiens
Cytochrome P450 3A4 [13] = biological target: T3, Cytochrome P450 3A4
Cytochrome P450 2C9 [14] = biological target: T4, Cytochrome P450 2C9 (Homo sapiens, UniProt P11712)
Cytochrome P450 2C9 [15] = biological target: T4, Cytochrome P450 2C9; remark: listed apart in the source
[16] = biological target: T1, Short transient receptor potential channel 4; test: block of DAMGO-driven TRPC4 calcium entry – cell-based, HEK293 TRPC4/mu-opioid, Fluo-4 calcium, dose response (AID 434942); format: functional;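 further: potency of inhibitors blocking the TRPC4 calcium response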
Protein Wnt-3a = Protein Wnt-3a (Mus musculus, UniProt P27467); test: antagonism of Wnt3a pathway luciferase reporter – Wnt-LIGHT cells, luminescence, selectivity assay for Gli-SUFU antagonist project, dose response (AID 651570); format: functional; settings: read-out: IC50_Mean;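 further: Wnt-LIGHT reporter cells stimulated with conditioned medium from Wnt3a-producing cells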
[17] = reduction of Shn3 3'UTR-driven luciferase in osteoblasts – cell-based, Clone20 osteoblasts, firefly luciferase, cherry-picked, dose response (AID 624132); format: functional;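 further: firefly luciferase luminescence from reporter carrying the Shn3 3'UTR in osteoblasts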
[18] = non-specific 3'UTR reporter inhibition in Clone20-Shn3RL – cell-based, Renilla luciferase, cherry-picked, counter-screen for Shn3 inhibitor project, dose response (AID 624133); format: functional

Sequence of Cytochrome P450 2C19 (P33261 whole entry): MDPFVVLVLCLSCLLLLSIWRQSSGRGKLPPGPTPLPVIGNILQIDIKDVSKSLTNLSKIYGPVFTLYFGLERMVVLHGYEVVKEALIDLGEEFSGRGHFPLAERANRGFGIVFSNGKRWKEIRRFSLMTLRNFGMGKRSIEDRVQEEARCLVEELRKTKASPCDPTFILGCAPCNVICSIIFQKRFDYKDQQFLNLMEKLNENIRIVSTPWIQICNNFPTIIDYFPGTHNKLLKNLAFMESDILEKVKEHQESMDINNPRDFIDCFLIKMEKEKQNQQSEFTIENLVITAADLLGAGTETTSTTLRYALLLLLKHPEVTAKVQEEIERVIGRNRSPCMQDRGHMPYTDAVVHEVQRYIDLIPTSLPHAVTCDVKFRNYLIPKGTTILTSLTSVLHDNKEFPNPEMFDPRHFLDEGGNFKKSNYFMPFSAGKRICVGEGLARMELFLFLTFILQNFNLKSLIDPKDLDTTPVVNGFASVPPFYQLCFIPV
T3 sequence (P08684 whole entry): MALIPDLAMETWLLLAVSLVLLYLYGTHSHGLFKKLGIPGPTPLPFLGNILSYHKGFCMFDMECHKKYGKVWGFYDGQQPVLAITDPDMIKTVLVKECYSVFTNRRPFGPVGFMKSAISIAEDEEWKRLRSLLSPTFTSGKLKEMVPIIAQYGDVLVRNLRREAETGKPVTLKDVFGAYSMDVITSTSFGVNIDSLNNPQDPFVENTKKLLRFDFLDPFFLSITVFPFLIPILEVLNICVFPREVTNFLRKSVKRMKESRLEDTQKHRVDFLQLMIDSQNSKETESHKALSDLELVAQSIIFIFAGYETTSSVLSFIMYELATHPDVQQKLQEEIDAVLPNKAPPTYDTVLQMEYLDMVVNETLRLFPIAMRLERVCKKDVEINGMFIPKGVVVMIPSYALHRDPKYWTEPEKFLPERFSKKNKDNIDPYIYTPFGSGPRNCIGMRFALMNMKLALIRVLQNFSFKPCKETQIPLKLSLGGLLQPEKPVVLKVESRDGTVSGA
Sequence of Cytochrome P450 2D6 (P10635 whole entry): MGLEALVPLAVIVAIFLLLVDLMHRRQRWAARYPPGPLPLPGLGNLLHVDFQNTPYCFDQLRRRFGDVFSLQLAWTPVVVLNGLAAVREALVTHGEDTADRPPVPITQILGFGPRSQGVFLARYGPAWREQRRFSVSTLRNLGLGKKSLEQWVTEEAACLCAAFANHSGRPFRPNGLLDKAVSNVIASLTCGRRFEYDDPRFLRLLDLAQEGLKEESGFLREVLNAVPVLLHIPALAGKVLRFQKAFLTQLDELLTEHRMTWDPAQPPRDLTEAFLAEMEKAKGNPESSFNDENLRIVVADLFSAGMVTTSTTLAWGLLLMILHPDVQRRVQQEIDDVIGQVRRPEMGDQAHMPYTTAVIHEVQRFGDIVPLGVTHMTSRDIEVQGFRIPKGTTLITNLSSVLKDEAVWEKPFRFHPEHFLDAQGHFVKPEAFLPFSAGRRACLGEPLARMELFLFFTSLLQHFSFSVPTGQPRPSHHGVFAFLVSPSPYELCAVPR
T4 sequence (P11712 whole entry): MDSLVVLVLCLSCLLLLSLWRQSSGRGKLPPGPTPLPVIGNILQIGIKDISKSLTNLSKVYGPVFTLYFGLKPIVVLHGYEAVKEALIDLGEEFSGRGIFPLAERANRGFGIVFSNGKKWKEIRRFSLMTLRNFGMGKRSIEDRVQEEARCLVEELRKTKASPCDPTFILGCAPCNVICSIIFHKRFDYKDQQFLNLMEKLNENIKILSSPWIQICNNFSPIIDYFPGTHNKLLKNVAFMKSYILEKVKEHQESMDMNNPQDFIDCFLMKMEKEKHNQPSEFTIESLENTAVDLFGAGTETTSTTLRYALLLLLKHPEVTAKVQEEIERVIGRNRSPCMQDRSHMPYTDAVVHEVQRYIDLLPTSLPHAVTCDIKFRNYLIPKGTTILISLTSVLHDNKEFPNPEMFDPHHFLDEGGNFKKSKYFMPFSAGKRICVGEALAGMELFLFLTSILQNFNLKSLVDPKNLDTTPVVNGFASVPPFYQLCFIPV
Sequence of Eukaryotic translation initiation factor 4E (P63073 whole entry): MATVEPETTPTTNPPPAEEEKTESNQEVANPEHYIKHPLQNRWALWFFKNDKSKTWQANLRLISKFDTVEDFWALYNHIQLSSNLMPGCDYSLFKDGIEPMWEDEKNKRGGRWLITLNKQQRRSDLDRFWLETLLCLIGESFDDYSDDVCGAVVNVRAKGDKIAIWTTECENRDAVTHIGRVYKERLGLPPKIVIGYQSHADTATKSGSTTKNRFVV
Sequence of Kallikrein-7 (P49862 whole entry): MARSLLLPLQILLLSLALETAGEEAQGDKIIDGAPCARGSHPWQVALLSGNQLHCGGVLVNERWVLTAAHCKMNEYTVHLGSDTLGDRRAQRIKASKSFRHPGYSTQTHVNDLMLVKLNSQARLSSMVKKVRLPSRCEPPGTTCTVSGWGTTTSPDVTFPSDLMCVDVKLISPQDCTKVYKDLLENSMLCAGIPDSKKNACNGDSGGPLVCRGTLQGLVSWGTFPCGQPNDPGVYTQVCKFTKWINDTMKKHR
Sequence of Protein Wnt-3a (P27467 whole entry): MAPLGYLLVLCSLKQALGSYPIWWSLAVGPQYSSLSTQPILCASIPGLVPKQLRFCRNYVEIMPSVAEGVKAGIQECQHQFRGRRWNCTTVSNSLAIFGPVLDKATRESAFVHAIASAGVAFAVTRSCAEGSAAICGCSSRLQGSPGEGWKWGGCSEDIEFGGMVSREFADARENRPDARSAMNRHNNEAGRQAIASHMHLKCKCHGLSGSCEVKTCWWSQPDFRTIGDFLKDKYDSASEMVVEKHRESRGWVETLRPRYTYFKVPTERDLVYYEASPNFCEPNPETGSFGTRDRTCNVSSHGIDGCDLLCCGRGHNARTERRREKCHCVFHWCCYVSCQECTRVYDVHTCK

Structure (SMILES): O=C(CCCc1ccccc1)NCCc1cnc[nH]1
- EC50 [1]: 5.31 µM (active)

Structure (SMILES): Cc1cc(C)nc(Nc2n[nH]c(COc3ccc4ccccc4c3)n2)n1
- AC50 (Cytochrome P450 2D6): inconclusive
- AC50 (Cytochrome P450 1A2): 1.12 µM (inconclusive)
- AC50 (Cytochrome P450 2C19; read-out: AC50): 17.8 µM (inconclusive)

Structure (SMILES): CCc1nnc(NC(=O)Cn2nc(-c3ccccc3OC)ccc2=O)s1
- IC50 [2]: > 64 µM (inactive)

Structure (SMILES): O=C(CSc1ncn(-c2ccccc2)n1)N1CCc2ccccc21
- IC50 [2]: > 64 µM (inactive)

Structure (SMILES): COC(=O)CNC(=O)COC(=O)c1cc(Cl)cc(Cl)c1N
- EC50 (Kallikrein-7): > 69.5 µM (inactive)

Structure (SMILES): COc1ccc(/C=C/C(O)=C2/C(=O)NC3(C)CC2c2ccccc2O3)c(OC)c1OC (stereo unspecified)
- EC50 (Kallikrein-7): > 69.6 µM (inactive)

Structure (SMILES): CC(=O)Oc1c2c(c3c(c1CC=C(C)C)O[C@@]14C(=CC5CC1C(C)(C)OC4(C/C=C(\C)C(=O)O)C5=O)C3=O)OC(C)(CCC=C(C)C)C=C2 (stereo partly specified)
- AC50 (Cytochrome P450 3A4 [3]): 39.8 µM (inconclusive)

Structure (SMILES): COc1cc(C(=O)NNC(=O)C2CC=CCC2C(=O)O)cc(OC)c1OC (stereo unspecified)
- IC50 [2]: > 64 µM (inactive)

Structure (SMILES): O=Cc1cc2ccccc2nc1SCc1ccc(Cl)cc1
- EC50 (BJ [4]): 635 nM (active)
- EC50 [5]: 745 nM (active)
- EC50 (BJ [6]): 434 nM (active)
- AC50 [7]: 3.66 µM (active)
- EC50 (BJ [8]): 699 nM (active)
- EC50 [9]: 9.87 µM (active)
- EC50 (BJ [10]): 134 nM (active)
- EC50 [11]: 724 nM (active)
- EC50 [12]: 1.1 µM (active)

Structure (SMILES): O=C(Nc1ccc2c(c1)OCCO2)C1CCN(C(=O)c2ccccc2)CC1
- AC50 (Cytochrome P450 2D6): inconclusive

Structure (SMILES): CCOC(=O)C(Sc1ncnc2c1sc1nc(N3CCOCC3)c3c(c12)CCCC3)c1ccccc1 (stereo unspecified)
- AC50 (Cytochrome P450 3A4 [13]): inconclusive
- AC50 (Cytochrome P450 2C9 [14]): 316 nM (inconclusive)
- AC50 (Cytochrome P450 2C19; read-out: AC50): 10 µM (inconclusive)

Structure (SMILES): CCN(CC)CCn1c(-c2ccccc2)nc2c(NCCOC)nc(C)nc21
- AC50 (Cytochrome P450 3A4 [3]): 12.6 µM (inconclusive)

Structure (SMILES): CS(=O)(=O)N1CCC2(CCN(C(c3ccccc3)c3ccccc3)CC2)CC1
- AC50 (Cytochrome P450 3A4 [13]): inconclusive

Structure (SMILES): COc1ccccc1CN1CC2(CCN(S(=O)(=O)c3ccccc3)CC2)C1
- AC50 (Cytochrome P450 2D6): inconclusive
- AC50 (Cytochrome P450 2C19): inconclusive
- AC50 (Cytochrome P450 2C9 [15]): inconclusive

Structure (SMILES): Cn1cccc1C(=O)N1CCC2(CC1)CCN(c1ccc(-c3ccccc3)cc1)CC2
- AC50 (Cytochrome P450 1A2): 20 µM (inconclusive)
- AC50 (Cytochrome P450 3A4 [13]): inconclusive

Structure (SMILES): COCCNc1ncncc1-c1c(C)noc1C
- AC50 (Cytochrome P450 2C9 [15]): inconclusive

Structure (SMILES): COc1ccc(Cl)cc1NC(=O)CNCC(c1ccccc1)N(C)C (stereo unspecified)
- EC50 [1]: 1.06 µM (active)
- EC50 [16]: 421 nM (active)

Structure (SMILES): Cc1nn(Cc2noc(C(=O)NC3CCC(C)CC3)n2)c(C)c1Br (stereo unspecified)
- IC50 (Protein Wnt-3a): 4.35 µM (active)
- AC50 [17]: 3.28 µM (active)
- AC50 [18]: 6.78 µM (active)
